{
  "source": "patent US20090306093A1",
  "about": "“METHOD FOR TREATING PATIENT HAVING BENIGN PROSTATE HYPERPLASIA” (KAOHSIUNG MEDICAL UNIVERSITY, priority 2008, published 2009)",
  "key": {"PKA": {"system": "PKA", "assay": "Western blot of PKA expression in rat prostate", "description": "Prostate strips were incubated with KMUP-1 (10-100 μM), sildenafil (100 μM) and zaprinast (100 μM) in 10 mL Tyrode solution aerated with 95% O2 and 5% CO2 for 1 hour. To examine the possible mechanisms of KMUP-1 action, the rat prostate were pretreated with ODQ (10 μM), SQ22536 (10 μM) and RP-8pCPT-cGMPs (10 μM) for 30 minutes prior to the addition of KMUP-1 (100 μM).\nIn order to examine the expression of Rho kinase in prostate, the prostate strips were pre-incubated with phenylephrine (10 μM) for 30 minutes. After a pre-treatment of phenylephrine, KMUP-1 (10-100 μM) and Y-27632 (10 μM) were further incubated for 30 minutes. After the incubation time, the prostate were extracted with protein extraction reagent (Pierce Biotechnology, Inc., Rockford, Ill., USA.). The PZ-HPV-7 cells were incubated with and without KMUP-1 (0.1-10 μM) at 30 minutes, 8 and 24 hours. They were then washed rapidly with ice-cold PBS, incubated with protein extraction reagent, and scraped from the plates. The prostate tissues and cells were sonicated three times for 10 second each time and centrifuged at 13,000 rpm at 4° C. for 30 minutes. The protein concentrations of supernatants were determined, using bovine serum albumin as the standard. […] The intensity of the bands was measured by densitometry."}, "a1-adrenoceptor": {"system": "a1-adrenoceptor", "assay": "Antagonism of phenylephrine-induced contraction in isolated rat prostate strips", "details": "against phenylephrine, KMUP-1 0.01-1 μM", "description": "Smooth muscle contractility of isolated Wistar rat prostate was used to evaluate the possible involvement of a1-adrenoceptor antagonism by KMUP-1. KMUP-1 (0.01-1 μM) or vehicle was added to organ bath, containing the Tyrode solution, for 30 minutes after a concentration-response curve to phenylephrine (0.001-100 μM) was obtained.\nConcentration-response curves of phenylephrine were dose-dependently parallel-shifted to the right by KMUP-1."}, "a1B-adrenoceptor": {"target": "T1, a1B-adrenoceptor (Rattus norvegicus, UniProt P15823)", "T1 construct": "The submaxillary glands, spleen, and aorta of rats were separately homogenized; from tissue; host or cells: Wistar rat spleen membranes", "T1 sequence (P15823 1-515)": "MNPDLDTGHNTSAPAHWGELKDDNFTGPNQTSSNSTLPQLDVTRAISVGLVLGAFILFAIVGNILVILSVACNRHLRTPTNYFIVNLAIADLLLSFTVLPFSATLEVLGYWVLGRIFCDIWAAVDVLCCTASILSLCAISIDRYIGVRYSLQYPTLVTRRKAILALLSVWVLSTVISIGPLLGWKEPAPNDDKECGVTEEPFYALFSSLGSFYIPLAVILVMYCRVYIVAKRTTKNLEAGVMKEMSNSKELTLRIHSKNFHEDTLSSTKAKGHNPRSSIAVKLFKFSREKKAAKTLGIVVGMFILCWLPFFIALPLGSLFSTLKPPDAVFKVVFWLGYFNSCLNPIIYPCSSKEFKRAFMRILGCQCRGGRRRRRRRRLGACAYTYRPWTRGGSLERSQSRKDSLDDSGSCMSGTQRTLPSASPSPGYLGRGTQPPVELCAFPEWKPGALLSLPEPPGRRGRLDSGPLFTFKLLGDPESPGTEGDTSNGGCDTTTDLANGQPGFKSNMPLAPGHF", "assay": "[3H]-prazosin competition binding, rat spleen membranes", "details": "read-out: Receptor Affinity (pKi) a1B (converted)", "description": "Wistar rats were obtained from National Laboratory Animal Breeding and Research Center (Taipei, Taiwan) and housed under a constant temperature and controlled illumination. The submaxillary glands, spleen, and aorta of rats were separately homogenized for 30 seconds with a Kinematica polytron in 20 volumes of ice-cold TE buffer (10 mM Tris HCl, 1 mM EDTA, 0.1 mM ascorbic acid, pH 7.4). The homogenate was filtered under pressure through muslin and the filtrate was centrifuged at 1,000 g for 10 minutes. The supernatant was centrifuged again at 10,000 g for 12 minutes at 4° C. The second supernatant was centrifuged at 30,000 g for 15 minutes at 4° C., and the final pellet was resuspended in the assay buffer (75 mM Tris HCl, 25 mM MgCl2, pH 7.4). Protein content was determined by Bradford's method.\n[^3H]-prazosin, KMUP-1 and membranes (200-300 μg) were incubated for 60 minutes at 25° C. with or without the addition of nonspecific binding agents, in a 75 mM Tris HCl buffer with 25 mM MgCl2, making a final volume of 500 μL. In this experiment, non-specific binding was defined by use of 10 μM phentolamine. […] Membrane-bound radioligand trapped in the filters was counted in a Beckman LS6500 scintillation system (Fullerton, Calif.) with an efficiency of 45%. In each experiment, nonspecifically bound radioligand agents were measured by incubating membrane protein. […]"}},
  "data": [
    {"compound": "Cn1c(=O)c2c(ncn2CCN2CCN(c3ccccc3Cl)CC2)n(C)c1=O", "note": "[KMUP-1, 7-[2-[4-(2-Chlorobenzene)piperazinyl]ethyl]-1,3-dimethyl xanthine]", "values": [
      {"measurement": "expression of PKA", "setting": "PKA; 100 μM", "result": "significantly induces"},
      {"measurement": "expression of PKA", "setting": "PKA; KMUP-1 100 μM with SQ22536 10 μM", "result": "reversed"},
      {"measurement": "apparent pA2", "setting": "a1-adrenoceptor", "result": "7.82±0.33"},
      {"measurement": "Ki", "setting": "a1B-adrenoceptor", "result": 115, "unit": "nM"}
    ]}
  ]
}
